US10517889B2, “Modulators of SMAD7 expression” (Ionis Pharmaceuticals, Inc., priority 2017, dated 2019)

How the values were obtained:
[1] = Body and organ weights after oral gavage in CD-1 mice (Example 7); assay type: in vivo; conditions: 500 mg/kg oral gavage once daily for 4 weeks, end of study
Method: (§1) Groups of 7-8 week old male CD-1 mice were given an oral gavage dose once daily for 4 weeks of 500 mg/kg of Ionis SMAD7 oligonucleotides. Each group contained 8 mice. One group of male CD-1 mice was administered saline by oral gavage daily.
Final body weights were measured at the end of the study. There was no significant difference in the body weight of the mice treated with antisense oligonucleotide compared to the control.
None of the Ionis SMAD7 oligonucleotides caused any changes in organ weights outside the expected range for antisense oligonucleotides.

[2] = system: human peripheral blood mononuclear cells (PBMCs); experiment: Human PBMC activation assay, cytokine levels (IL-10, IL-6, MCP-1, TNF-α) in supernatant after 24 hours (Example 9); conditions: human PBMC supernatant after 24 hours
[3] = system: mouse Smad7 mRNA; experiment: Pharmacology: mouse Smad7 mRNA expression in liver, kidney, duodenum, ileum and colon after subcutaneous administration in CD-1 mice (Example 6); assay type: in vivo; conditions: 50 mg/kg subcutaneous twice weekly for 7 weeks, normalized to GAPDH
Procedure, shortened: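 Male CD-1 mice, 8-9 weeks old, got 50 mg/kg oligonucleotide subcutaneously twice weekly (100 mg/kg/week) for 7 weeks, with PBS controls; n=4 per group. At necropsy, Smad7 mRNA in liver, kidney, duodenum, ileum and colon was measured by RT-PCR (probe set HTS7555), normalized to GAPDH; one-way ANOVA with Dunnett's test.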

[4] = Blood chemistry markers after oral gavage in CD-1 mice (Example 7); assay type: in vivo; conditions: 500 mg/kg oral gavage once daily for 4 weeks, day 30
Method: The objective of this study was to evaluate the tolerability and pharmacodynamics of select Ionis human SMAD7 antisense oligonucleotides in CD-1 mice following 4 weeks of treatment. The mice were administered oligonucleotides by oral gavage.
as §1
Levels of transaminases, albumin, and BUN were measured using a Toshiba 200FR NEO chemistry analyzer (Toshiba Co., Japan).

[5] = Oligonucleotide concentration in tissues by LC-MS/MS after subcutaneous administration in beagle dogs (Example 8); assay type: in vivo; conditions: 30 mg/kg subcutaneous, 48 hours after the last dose
Method: There were 4 animals per group.
Oligonucleotide concentrations of both ION 830025 and ION 798781 were detected in various tissues by LC-MS/MS analysis. The results are presented below, expressed as μg/g tissue. The data was collected 48 hours after the last dose.

[6] = system: human SMAD7 mRNA; experiment: Antisense inhibition of human SMAD7 mRNA expression in Hep3B cells by 3-10-3 cEt gapmers, 10,000 nM, electroporation (Example 2); assay type: cell-based; conditions: Hep3B cells, electroporation with 10,000 nM antisense oligonucleotide, approximately 24 hours
Procedure, shortened: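 Hep3B cells (20,000 per well) were electroporated with 10,000 nM 16-mer 3-10-3 cEt gapmer (phosphorothioate, 5-methylcytosine). After about 24 h, SMAD7 mRNA was quantified by qRT-PCR with primer probe set RTS5062, normalised to RIBOGREEN total RNA, and expressed as percent inhibition versus untreated cells.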

[7] = Plasma chemistry markers after subcutaneous administration in beagle dogs (Example 8); conditions: 30 mg/kg subcutaneous days 1, 3, 5, 8, 15, 22, 29, plasma at day 31
Method: Groups of 24-25 week old male beagle dogs were injected subcutaneously with 30 mg/kg ION Ionis oligonucleotide. There were 4 animals per group. Dogs were injected every two days for the first week (day 1, 3, and 5) and once weekly thereafter (days 8, 15, 22, and 29). A control group of dogs received subcutaneous injections of PBS. Dogs were sacrificed on day 31 approximately 48 hours after the final dose and organs and plasma were harvested for further analysis.
To evaluate the effect of Ionis SMAD7 oligonucleotides on liver and kidney function, plasma levels of transaminases, albumin, creatine and BUN were measured using an automated clinical chemistry analyzer (Toshiba 200FR Neo chemistry analyzer, Toshiba Co., Japan).

829994 (GGAGGCAGGGCCGCGA; 3-10-3 cEt gapmer, further chemistry not given here) [compound 829994]
Body weight [1]: 35 g
Heart weight [1]: 0.18 g
Kidneys weight [1]: 0.62 g
Liver with gallbladder weight [1]: 2.02 g
Spleen weight [1]: 0.11 g
Levels of IL-6 ([2]; 0.0128 μM oligonucleotide): 4.1 pg/mL
Levels of IL-10 ([2]; 0.0128 μM oligonucleotide): 2.0 pg/mL
Levels of MCP-1 ([2]; 0.0128 μM oligonucleotide): 299.8 pg/mL
Levels of TNF-α ([2]; 0.0128 μM oligonucleotide): 2.5 pg/mL
Levels of IL-6 ([2]; 0.064 μM oligonucleotide): 3.8 pg/mL
Levels of IL-10 ([2]; 0.064 μM oligonucleotide): 1.8 pg/mL
Levels of MCP-1 ([2]; 0.064 μM oligonucleotide): 379.8 pg/mL
Levels of TNF-α ([2]; 0.064 μM oligonucleotide): 2.9 pg/mL
Levels of IL-6 ([2]; 0.32 μM oligonucleotide): 4.5 pg/mL
Levels of IL-10 ([2]; 0.32 μM oligonucleotide): 1.8 pg/mL
Levels of MCP-1 ([2]; 0.32 μM oligonucleotide): 489.7 pg/mL
Levels of TNF-α ([2]; 0.32 μM oligonucleotide): 3.0 pg/mL
Levels of IL-6 ([2]; 1.6 μM oligonucleotide): 15.9 pg/mL
Levels of IL-10 ([2]; 1.6 μM oligonucleotide): 5.2 pg/mL
Levels of MCP-1 ([2]; 1.6 μM oligonucleotide): 1300.0 pg/mL
Levels of TNF-α ([2]; 1.6 μM oligonucleotide): 8.0 pg/mL
Levels of IL-6 ([2]; 8 μM oligonucleotide): 202.5 pg/mL
Levels of IL-10 ([2]; 8 μM oligonucleotide): 8.0 pg/mL
Levels of MCP-1 ([2]; 8 μM oligonucleotide): 3370.0 pg/mL
Levels of TNF-α ([2]; 8 μM oligonucleotide): 63.2 pg/mL
Levels of IL-6 ([2]; 40 μM oligonucleotide): 66.1 pg/mL
Levels of IL-10 ([2]; 40 μM oligonucleotide): 4.3 pg/mL
Levels of MCP-1 ([2]; 40 μM oligonucleotide): 1998.4 pg/mL
Levels of TNF-α ([2]; 40 μM oligonucleotide): 32.3 pg/mL
Levels of IL-6 ([2]; 200 μM oligonucleotide): 97.1 pg/mL
Levels of IL-10 ([2]; 200 μM oligonucleotide): 3.8 pg/mL
Levels of MCP-1 ([2]; 200 μM oligonucleotide): 391.7 pg/mL
Levels of TNF-α ([2]; 200 μM oligonucleotide): 28.6 pg/mL
% inhibition of Smad7 mRNA expression (compared to control), Kidney [3]: 73%
% inhibition of Smad7 mRNA expression (compared to control), Liver [3]: 58%
ALT [4]: 38 IU/L
AST [4]: 71 IU/L
Albumin [4]: 3.2 g/dL
BUN [4]: 25 mg/dL
Bilirubin [4]: 0.3 mg/dL
Full length oligonucleotide, Distal colon [5]: 7 µg/g
Full length oligonucleotide, Duodenum [5]: 23 µg/g
Full length oligonucleotide, Ileum [5]: 12 µg/g
Full length oligonucleotide, Kidney [5]: 894 µg/g
Full length oligonucleotide, Liver [5]: 335 µg/g
Full length oligonucleotide, Proximal colon [5]: 11 µg/g
% Inhibition ([6]; SMAD7 mRNA, primer probe set RTS5062, relative to untreated control cells): 68%
ALT [7]: 62 IU/L
AST [7]: 52 IU/L
Albumin [7]: 3.1 g/dL
BUN [7]: 15.4 mg/dL
Bilirubin [7]: 0.1 mg/dL
Creatine [7]: 0.7 mg/dL

830025 (antisense TTTGTAAATCGAAAGC; 3-10-3 cEt gapmer, further chemistry not given here) [compound 830025]
Body weight [1]: 35 g
Heart weight [1]: 0.17 g
Kidneys weight [1]: 0.71 g
Liver with gallbladder weight [1]: 1.88 g
Spleen weight [1]: 0.10 g
Levels of IL-6 ([2]; 0.0128 μM oligonucleotide): 3.1 pg/mL
Levels of IL-10 ([2]; 0.0128 μM oligonucleotide): 1.5 pg/mL
Levels of MCP-1 ([2]; 0.0128 μM oligonucleotide): 309.7 pg/mL
Levels of TNF-α ([2]; 0.0128 μM oligonucleotide): 2.8 pg/mL
Levels of IL-6 ([2]; 0.064 μM oligonucleotide): 3.8 pg/mL
Levels of IL-10 ([2]; 0.064 μM oligonucleotide): 1.9 pg/mL
Levels of MCP-1 ([2]; 0.064 μM oligonucleotide): 353.9 pg/mL
Levels of TNF-α ([2]; 0.064 μM oligonucleotide): 2.9 pg/mL
Levels of IL-6 ([2]; 0.32 μM oligonucleotide): 5.0 pg/mL
Levels of IL-10 ([2]; 0.32 μM oligonucleotide): 2.6 pg/mL
Levels of MCP-1 ([2]; 0.32 μM oligonucleotide): 387.7 pg/mL
Levels of TNF-α ([2]; 0.32 μM oligonucleotide): 3.9 pg/mL
Levels of IL-6 ([2]; 1.6 μM oligonucleotide): 12.9 pg/mL
Levels of IL-10 ([2]; 1.6 μM oligonucleotide): 3.6 pg/mL
Levels of MCP-1 ([2]; 1.6 μM oligonucleotide): 554.3 pg/mL
Levels of TNF-α ([2]; 1.6 μM oligonucleotide): 5.4 pg/mL
Levels of IL-6 ([2]; 8 μM oligonucleotide): 17.8 pg/mL
Levels of IL-10 ([2]; 8 μM oligonucleotide): 2.9 pg/mL
Levels of MCP-1 ([2]; 8 μM oligonucleotide): 750.0 pg/mL
Levels of TNF-α ([2]; 8 μM oligonucleotide): 6.7 pg/mL
Levels of IL-6 ([2]; 40 μM oligonucleotide): 19.5 pg/mL
Levels of IL-10 ([2]; 40 μM oligonucleotide): 1.4 pg/mL
Levels of MCP-1 ([2]; 40 μM oligonucleotide): 580.8 pg/mL
Levels of TNF-α ([2]; 40 μM oligonucleotide): 7.6 pg/mL
Levels of IL-6 ([2]; 200 μM oligonucleotide): 30.6 pg/mL
Levels of IL-10 ([2]; 200 μM oligonucleotide): 0.7 pg/mL
Levels of MCP-1 ([2]; 200 μM oligonucleotide): 52.7 pg/mL
Levels of TNF-α ([2]; 200 μM oligonucleotide): 4.9 pg/mL
% inhibition of Smad7 mRNA expression (compared to control), Kidney [3]: 45%
% inhibition of Smad7 mRNA expression (compared to control), Liver [3]: 60%
ALT [4]: 34 IU/L
AST [4]: 65 IU/L
Albumin [4]: 3.3 g/dL
BUN [4]: 21 mg/dL
Bilirubin [4]: 0.2 mg/dL
Full length oligonucleotide, Distal colon [5]: 49 µg/g
Full length oligonucleotide, Duodenum [5]: 97 µg/g
Full length oligonucleotide, Ileum [5]: 41 µg/g
Full length oligonucleotide, Kidney [5]: 1470 µg/g
Full length oligonucleotide, Liver [5]: 466 µg/g
Full length oligonucleotide, Proximal colon [5]: 31 µg/g
% Inhibition ([6]; SMAD7 mRNA by RT-PCR (RTS5062), relative to untreated control cells): 62%
ALT [7]: 26 IU/L
AST [7]: 38 IU/L
Albumin [7]: 3.1 g/dL
BUN [7]: 17.9 mg/dL
Bilirubin [7]: 0.1 mg/dL
Creatine [7]: 0.9 mg/dL
